The record followed here is patent US20260337187A1, “COMPOUNDS FOR TREATMENT OF INFLAMMATORY PROCESSES” (THORNE LIMITED, priority 2022, published 2026).

Like-named read-outs stand apart in the source and are kept apart here.

In one test the test system is primary human B cells. Nature of the test: B lymphocyte plasmablast development (CD38+/CD19low and CD138+ by FACS). Conditions: 5 days; FIG. 4 (20 and 10 μM). Format: cell-based. Here is the method: The effect of two concentrations (from right to left: 20 and 10 μM) of B2 is shown in each plot in comparison to control (far left). Each symbol represents one experiment.
B lymphocyte plasmablast development: For human B lymphocyte plasmablast development, primary human B cells were isolated from buffy coat using the MACSxpress Buffy Coat Pan B Cell Isolation Kit (Miltenyi Biotec) as per manufacturer's instructions. The cells were cultured in RPMI in the presence of human transferrin (20 μg/ml), IL-21 (100 ng/ml), recombinant hCD40L (100 μg/ml), anti-HA (50 μg/ml), at a cell density of 5×10^4 cells/ml. Plasmablast formation after 5 days was measured by FACS using two sets of markers: CD38+/CD19low and CD138+ for two stages of plasmablast development.
To investigate the inhibition of B lymphocyte plasmablast development by B2, primary human B cells, isolated from buffy coat, were cultured in the presence of CD40, IL21, anti-IgM, and plasmablast formation measured by FACS using two sets of markers: CD38+/CD19low (FIG. 4, upper plot) and CD138+(FIG. 4, lower plot) for two stages of plasmablast development.

The next test relates to primary human mast cells. Nature of the test: Mast cell cytokine release (cytokine array). To be noted: 100 μM B2, 24 h, IgE/anti-IgE. Format: cell-based. Here is the method: FIG. 8 is a plot showing average relative intensity of cytokine levels relative to control showing the modulation of mast cell cytokine release by B2. Average of 3 experiments.
Mast cell cytokine release: Primary human mast cells developed in culture from CD34+ precursors as described above in relation to mast cell degranulation were stimulated at a cell density of 0.8×10^6 cells/ml by 0.12 mg/ml IgE and 0.1 μg/ml anti-IgE in mast cell medium (StemSpan SFEM including 100 ng/ml SCF, 50 ng/ml IL6, 2 & FBS, and 1% Pen/Strep). Simultaneously, the cells were treated with 100 μM B2, and cytokine levels present in the culture supernatants were measured after 24 h. The levels of 105 cytokines were measured by the R&D Systems Human XL cytokine array as per manufacturer's instructions. The signals were measured by a fluorescence-based photometric read-out in the Li—COR Odyssey Fluorescent imaging system, and the spots quantified by Fiji software.
To investigate the modulation of mast cell cytokine release by B2, primary human mast cells were stimulated by IgE/anti-IgE, treated with 100 μM B2, and cytokine levels present in the culture supernatants measured after 24 h. The levels of 105 cytokines were measured by the R&D Systems Human XL cytokine array and a fluorescence-based photometric read-out.

Test [1] has as its system primary peripheral blood monocytes. Briefly: Macrophage/monocyte migration to CCL2 (Boyden chamber/Transwell). It is filed as cell-based, human. To be noted: 50 μM B2, towards CCL2 (FIG. 10). Here is the method:
Dark grey: dimethylsulfoxide (DMSO) only; light grey: 50 μM B2. An exemplary experiment out of four is shown.
Macrophage/monocyte migration: Monocytes/macrophages were purified from buffy coats, first by density gradient centrifugation on ficoll to isolate total PBMC, and then by negative selection using the monocyte purification kit from Miltenyi Inc. as per manufacturer's instructions. Monocytes were then resuspended in tissue culture media at a concentration of 5×10^6 per ml. Monocyte migration to CCL2 was then measured using a Boyden chamber assay fitted with a membrane with […] pores. This was performed as follows: 200 μl of cells were pipetted into the upper chamber in the presence or absence of B2 or DMSO control. In the lower chamber 1 ml of the chemokine solution at concentrations of 10 ng/mL and 100 ng/mL, together with the same amount of B2 or DMSO as in the upper chamber was added. Cells were then left to migrate for 6 hours and the number of cells migrating into the lower chamber was ascertained by standard cell counting.
To investigate the inhibition of macrophage/monocyte migration by B2, primary peripheral blood monocytes were isolated from buffy coat and subsequent negative selection. […] Migrated cells were quantified after 5 hours in the presence of carrier (DMSO) only or 50 μM B2 in DMSO (FIG. 10).

Test [2] relates to Human primary coronary artery endothelial cells (HCAEC). Briefly: Coronary artery endothelial cell cytokine release (TNFα triggered, cytokine array). Format: cell-based. To be noted: 50 μM B2, TNFα. Here is the method: Human primary coronary artery endothelial cells (HCAEC) were triggered to produce cytokines by the pro-inflammatory cytokine TNFα. The levels of 105 cytokines in the cell culture supernatant were measured by the R&D Systems Human XL cytokine array and a fluorescence-based photometric read-out. The table lists cytokines whose production was reduced by >50% (left) or 20 to 50% upon treatment with 50 μM B2 (right).

As a reminder, the inhibition is the share of the control response that was lost under treatment. Regarding `Cc1onc(-c2ccccc2Cl)c1C(=O)Nc1nc2ccc([N+](=O)[O-])cc2s1` [B2, 3-(2-chlorophenyl)-5-methyl-N-(6-nitrobenzo[d]thiazol-2-yl)isoxazole-4-carboxamide], in the test on primary human B cells, the “human B cell plasmablast development” value is listed as “inhibition of human B cell plasmablast development”. Besides, the “mast cell cytokine release profile” value with primary human mast cells is on record as “reducing specific pro-inflammatory cytokines”. For the same molecule, in test [1], the macrophage migration entry is reported as “reduces macrophage migration”. Besides, the inhibition at 50 µM was 20 to 50% in test [2] (read-out: CCL5 production, inhibition); 20 to 50% in test [2] (read-out: CXCL1 production, inhibition); > 50% in test [2] (read-out: CXCL5 production, inhibition); > 50% in test [2] (read-out: CXCL10 production, inhibition); > 50% in test [2] (read-out: CXCL11 production, inhibition); 20 to 50% in test [2] (read-out: GM-CSF production, inhibition). Further, the inhibition at 50 µM was 20 to 50% in test [2] (read-out: ICAM1 production, inhibition); > 50% in test [2] (read-out: IGFBP2 production, inhibition); > 50% in test [2] (read-out: Thrombospondin-1 production, inhibition); > 50% in test [2] (read-out: VCAM1 production, inhibition).
